{"source": "the supplement of paper PMC10307832", "assay_in_all_cases": "relative viability (nuclei count vs DMSO), 5 days (fraction); higher = more cells survive", "key": {"[1]": {"tested_on": "NCI-H2023", "in_short": "(§1)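 Relative viability was taken as the ratio of nuclei in treated wells to nuclei in vehicle wells. Lung cancer cell lines in 1536-well plates received compounds by pin tool one day after seeding, either one drug alone or a fixed anchor-drug dose plus five library-drug doses (not always all listed) in √10 steps. Nuclei were counted on 4× images after 5 days of treatment, and values are medians of duplicate plates.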"}, "[2]": {"tested_on": "NCI-H647", "in_short": "as §1"}, "[3]": {"tested_on": "H3255", "in_short": "as §1"}, "[4]": {"tested_on": "NCI-H2347", "in_short": "as §1"}, "[5]": {"tested_on": "NCI-H2085", "in_short": "as §1"}, "[6]": {"tested_on": "SK-LU-1", "in_short": "as §1"}, "[7]": {"tested_on": "PC-14", "in_short": "as §1"}, "[8]": {"tested_on": "NCI-H727", "in_short": "as §1"}, "[9]": {"tested_on": "NCI-H2009", "in_short": "as §1"}, "[10]": {"tested_on": "NCI-H1993", "in_short": "as §1"}, "[11]": {"tested_on": "SW 1573", "in_short": "as §1"}, "[12]": {"tested_on": "EMC-BAC-2", "in_short": "as §1"}, "[13]": {"tested_on": "LXF-289", "in_short": "as §1"}, "[14]": {"tested_on": "NCI-H2126", "in_short": "as §1"}, "[15]": {"tested_on": "NCI-H322M", "in_short": "as §1"}, "[16]": {"tested_on": "HOP-62", "in_short": "as §1"}, "[17]": {"tested_on": "LCLC-97TM1", "in_short": "as §1"}, "[18]": {"tested_on": "NCI-H1915", "in_short": "as §1"}, "[19]": {"tested_on": "EPLC-272H", "in_short": "as §1"}, "[20]": {"tested_on": "NCI-H1734", "in_short": "as §1"}, "[21]": {"tested_on": "NCI-H661", "in_short": "as §1"}}, "data": [{"molecule": "Nc1ccn([C@@H]2O[C@H](CO)[C@@H](O)[C@@H]2O)c(=O)n1", "note": "[Cytarabine] + O=C(c1cc(Cc2n[nH]c(=O)c3ccccc23)ccc1F)N1CCN(C(=O)C2CC2)CC1 [Olaparib] (partner 8 µM)", "values": [{"measurement": "relative viability", "setting": "[1]; first compound 0.005 µM", "result": 0.382}, {"measurement": "relative viability", "setting": "[1]; first compound 0.01581 µM", "result": 0.276}, {"measurement": "relative viability", "setting": "[1]; first compound 0.05 µM", "result": 0.236}, {"measurement": "relative viability", "setting": "[1]; first compound 0.1581 µM", "result": 0.0812}, {"measurement": "relative viability", "setting": "[1]; first compound 0.5 µM", "result": 0.0898}, {"measurement": "relative viability", "setting": "[2]; first compound 0.005 µM", "result": 0.285}, {"measurement": "relative viability", "setting": "[2]; first compound 0.01581 µM", "result": 0.22}, {"measurement": "relative viability", "setting": "[2]; first compound 0.05 µM", "result": 0.174}, {"measurement": "relative viability", "setting": "[2]; first compound 0.1581 µM", "result": 0.0623}, {"measurement": "relative viability", "setting": "[2]; first compound 0.5 µM", "result": 0.0624}, {"measurement": "relative viability", "setting": "[3]; first compound 0.005 µM", "result": 0.569}, {"measurement": "relative viability", "setting": "[3]; first compound 0.01581 µM", "result": 0.552}, {"measurement": "relative viability", "setting": "[3]; first compound 0.05 µM", "result": 0.495}, {"measurement": "relative viability", "setting": "[3]; first compound 0.1581 µM", "result": 0.526}, {"measurement": "relative viability", "setting": "[3]; first compound 0.5 µM", "result": 0.446}, {"measurement": "relative viability", "setting": "[4]; first compound 0.005 µM", "result": 0.59}, {"measurement": "relative viability", "setting": "[4]; first compound 0.01581 µM", "result": 0.569}, {"measurement": "relative viability", "setting": "[4]; first compound 0.05 µM", "result": 0.522}, {"measurement": "relative viability", "setting": "[4]; first compound 0.1581 µM", "result": 0.538}, {"measurement": "relative viability", "setting": "[4]; first compound 0.5 µM", "result": 0.493}, {"measurement": "relative viability", "setting": "[5]; first compound 0.005 µM", "result": 0.718}, {"measurement": "relative viability", "setting": "[5]; first compound 0.01581 µM", "result": 0.727}, {"measurement": "relative viability", "setting": "[5]; first compound 0.05 µM", "result": 0.802}, {"measurement": "relative viability", "setting": "[5]; first compound 0.1581 µM", "result": 0.655}, {"measurement": "relative viability", "setting": "[5]; first compound 0.5 µM", "result": 0.61}, {"measurement": "relative viability", "setting": "[6]; first compound 0.005 µM", "result": 0.472}, {"measurement": "relative viability", "setting": "[6]; first compound 0.01581 µM", "result": 0.392}, {"measurement": "relative viability", "setting": "[6]; first compound 0.05 µM", "result": 0.32}, {"measurement": "relative viability", "setting": "[6]; first compound 0.1581 µM", "result": 0.284}, {"measurement": "relative viability", "setting": "[6]; first compound 0.5 µM", "result": 0.235}, {"measurement": "relative viability", "setting": "[7]; first compound 0.005 µM", "result": 0.227}, {"measurement": "relative viability", "setting": "[7]; first compound 0.01581 µM", "result": 0.252}, {"measurement": "relative viability", "setting": "[7]; first compound 0.05 µM", "result": 0.241}, {"measurement": "relative viability", "setting": "[7]; first compound 0.1581 µM", "result": 0.105}, {"measurement": "relative viability", "setting": "[7]; first compound 0.5 µM", "result": 0.0848}, {"measurement": "relative viability", "setting": "[8]; first compound 0.005 µM", "result": 0.659}, {"measurement": "relative viability", "setting": "[8]; first compound 0.01581 µM", "result": 0.541}, {"measurement": "relative viability", "setting": "[8]; first compound 0.05 µM", "result": 0.679}, {"measurement": "relative viability", "setting": "[8]; first compound 0.1581 µM", "result": 0.542}, {"measurement": "relative viability", "setting": "[8]; first compound 0.5 µM", "result": 0.566}, {"measurement": "relative viability", "setting": "[9]; first compound 0.005 µM", "result": 0.744}, {"measurement": "relative viability", "setting": "[9]; first compound 0.01581 µM", "result": 0.752}, {"measurement": "relative viability", "setting": "[9]; first compound 0.05 µM", "result": 0.724}, {"measurement": "relative viability", "setting": "[9]; first compound 0.1581 µM", "result": 0.644}, {"measurement": "relative viability", "setting": "[9]; first compound 0.5 µM", "result": 0.202}, {"measurement": "relative viability", "setting": "[10]; first compound 0.005 µM", "result": 1.05}, {"measurement": "relative viability", "setting": "[10]; first compound 0.01581 µM", "result": 0.933}, {"measurement": "relative viability", "setting": "[10]; first compound 0.05 µM", "result": 0.998}, {"measurement": "relative viability", "setting": "[10]; first compound 0.1581 µM", "result": 0.727}, {"measurement": "relative viability", "setting": "[10]; first compound 0.5 µM", "result": 0.459}, {"measurement": "relative viability", "setting": "[11]; first compound 0.005 µM", "result": 0.513}, {"measurement": "relative viability", "setting": "[11]; first compound 0.01581 µM", "result": 0.329}, {"measurement": "relative viability", "setting": "[11]; first compound 0.05 µM", "result": 0.384}, {"measurement": "relative viability", "setting": "[11]; first compound 0.1581 µM", "result": 0.166}, {"measurement": "relative viability", "setting": "[11]; first compound 0.5 µM", "result": 0.108}, {"measurement": "relative viability", "setting": "[12]; first compound 0.005 µM", "result": 0.53}, {"measurement": "relative viability", "setting": "[12]; first compound 0.01581 µM", "result": 0.449}, {"measurement": "relative viability", "setting": "[12]; first compound 0.05 µM", "result": 0.369}, {"measurement": "relative viability", "setting": "[12]; first compound 0.1581 µM", "result": 0.287}, {"measurement": "relative viability", "setting": "[12]; first compound 0.5 µM", "result": 0.27}, {"measurement": "relative viability", "setting": "[13]; first compound 0.005 µM", "result": 0.904}, {"measurement": "relative viability", "setting": "[13]; first compound 0.01581 µM", "result": 0.829}, {"measurement": "relative viability", "setting": "[13]; first compound 0.05 µM", "result": 0.709}, {"measurement": "relative viability", "setting": "[13]; first compound 0.1581 µM", "result": 0.285}, {"measurement": "relative viability", "setting": "[13]; first compound 0.5 µM", "result": 0.232}, {"measurement": "relative viability", "setting": "[14]; first compound 0.005 µM", "result": 0.923}, {"measurement": "relative viability", "setting": "[14]; first compound 0.01581 µM", "result": 0.907}, {"measurement": "relative viability", "setting": "[14]; first compound 0.05 µM", "result": 0.673}, {"measurement": "relative viability", "setting": "[14]; first compound 0.1581 µM", "result": 0.534}, {"measurement": "relative viability", "setting": "[14]; first compound 0.5 µM", "result": 0.515}, {"measurement": "relative viability", "setting": "[15]; first compound 0.005 µM", "result": 0.773}, {"measurement": "relative viability", "setting": "[15]; first compound 0.01581 µM", "result": 0.695}, {"measurement": "relative viability", "setting": "[15]; first compound 0.05 µM", "result": 0.467}, {"measurement": "relative viability", "setting": "[15]; first compound 0.1581 µM", "result": 0.469}, {"measurement": "relative viability", "setting": "[15]; first compound 0.5 µM", "result": 0.351}, {"measurement": "relative viability", "setting": "[16]; first compound 0.005 µM", "result": 0.436}, {"measurement": "relative viability", "setting": "[16]; first compound 0.01581 µM", "result": 0.338}, {"measurement": "relative viability", "setting": "[16]; first compound 0.05 µM", "result": 0.253}, {"measurement": "relative viability", "setting": "[16]; first compound 0.1581 µM", "result": 0.13}, {"measurement": "relative viability", "setting": "[16]; first compound 0.5 µM", "result": 0.0414}, {"measurement": "relative viability", "setting": "[17]; first compound 0.005 µM", "result": 0.34}, {"measurement": "relative viability", "setting": "[17]; first compound 0.01581 µM", "result": 0.333}, {"measurement": "relative viability", "setting": "[17]; first compound 0.05 µM", "result": 0.183}, {"measurement": "relative viability", "setting": "[17]; first compound 0.1581 µM", "result": 0.126}, {"measurement": "relative viability", "setting": "[17]; first compound 0.5 µM", "result": 0.106}, {"measurement": "relative viability", "setting": "[18]; first compound 0.005 µM", "result": 0.288}, {"measurement": "relative viability", "setting": "[18]; first compound 0.01581 µM", "result": 0.253}, {"measurement": "relative viability", "setting": "[18]; first compound 0.05 µM", "result": 0.261}, {"measurement": "relative viability", "setting": "[18]; first compound 0.1581 µM", "result": 0.24}, {"measurement": "relative viability", "setting": "[18]; first compound 0.5 µM", "result": 0.212}, {"measurement": "relative viability", "setting": "[19]; first compound 0.005 µM", "result": 0.476}, {"measurement": "relative viability", "setting": "[19]; first compound 0.01581 µM", "result": 0.57}, {"measurement": "relative viability", "setting": "[19]; first compound 0.05 µM", "result": 0.607}, {"measurement": "relative viability", "setting": "[19]; first compound 0.1581 µM", "result": 0.244}, {"measurement": "relative viability", "setting": "[19]; first compound 0.5 µM", "result": 0.123}, {"measurement": "relative viability", "setting": "[20]; first compound 0.005 µM", "result": 0.4}, {"measurement": "relative viability", "setting": "[20]; first compound 0.01581 µM", "result": 0.243}, {"measurement": "relative viability", "setting": "[20]; first compound 0.05 µM", "result": 0.183}, {"measurement": "relative viability", "setting": "[20]; first compound 0.1581 µM", "result": 0.108}, {"measurement": "relative viability", "setting": "[20]; first compound 0.5 µM", "result": 0.122}, {"measurement": "relative viability", "setting": "[21]; first compound 0.005 µM", "result": 0.677}, {"measurement": "relative viability", "setting": "[21]; first compound 0.01581 µM", "result": 0.773}, {"measurement": "relative viability", "setting": "[21]; first compound 0.05 µM", "result": 0.646}, {"measurement": "relative viability", "setting": "[21]; first compound 0.1581 µM", "result": 0.518}, {"measurement": "relative viability", "setting": "[21]; first compound 0.5 µM", "result": 0.398}]}]}
